21 compounds from US10059688B2, “Protein tyrosine kinase modulators and methods of use” (BETTA PHARMACEUTICALS CO., LTD., priority 2013, dated 2018) can be followed below.

For assay [1], the system named is H1975 (EGFR L858R/T790M) NSCLC cells. Put plainly: Cell proliferation assay (MTS cell viability). The format is cell-based. The following applies: Homo sapiens, NCI-H1975, 72 h; H1975 cells, 3 days of exposure, MTS.
In assay [2] the test system is A549 (EGFR WT) NSCLC cells. Put plainly: Cell proliferation assay (MTS cell viability). In kind it is cell-based. The following applies: Homo sapiens, 72 h; A549 cells, 3 days of exposure, MTS.
Assay [3] relates to HCC827 (EGFR Del) NSCLC cells. Put plainly: Cell proliferation assay (MTS cell viability). The following applies: Homo sapiens, 72 h; HCC827 cells, 3 days of exposure, MTS. The format is cell-based.
In another assay the target is EGFR (T790M) (h) (Homo sapiens (Human), UniProt P00533, T790M). Put plainly: Kinase assay, single dose inhibition (Millipore, 33P-ATP filter binding). The format is biochemical. The following applies: 0.1 μM test compound, 10 μM ATP; remaining activity relative to DMSO control = 100%.
For another assay, the target named is EGFR (T790M, L858R) (h) (Homo sapiens (Human), UniProt P00533, L858R/T790M). The assay is described as above. In kind it is biochemical. The note with it: 0.1 μM test compound, 10 μM ATP; remaining activity relative to DMSO control = 100%.
A further assay has as its target EGFR (L858R) (h) (Homo sapiens (Human), UniProt P00533, L858R). The assay is described as above. The following applies: 0.1 μM test compound, 10 μM ATP; remaining activity relative to DMSO control = 100%. In kind it is biochemical.
The target of a further assay is ALK (h) (Homo sapiens (Human), UniProt Q9UM73). The description is as above. The format is biochemical. The following applies: 0.1 μM test compound, 10 μM ATP, remaining activity relative to DMSO control = 100%.
The target of a further assay is EGFR (h) (Homo sapiens (Human), UniProt P00533). The assay is described as above. In kind it is biochemical. The following applies: 0.1 μM test compound, 10 μM ATP; remaining activity relative to DMSO control = 100%.

A value given as a limit tells only on which side of the number the result lay.

ALK (h), sequence (Q9UM73 19-1620): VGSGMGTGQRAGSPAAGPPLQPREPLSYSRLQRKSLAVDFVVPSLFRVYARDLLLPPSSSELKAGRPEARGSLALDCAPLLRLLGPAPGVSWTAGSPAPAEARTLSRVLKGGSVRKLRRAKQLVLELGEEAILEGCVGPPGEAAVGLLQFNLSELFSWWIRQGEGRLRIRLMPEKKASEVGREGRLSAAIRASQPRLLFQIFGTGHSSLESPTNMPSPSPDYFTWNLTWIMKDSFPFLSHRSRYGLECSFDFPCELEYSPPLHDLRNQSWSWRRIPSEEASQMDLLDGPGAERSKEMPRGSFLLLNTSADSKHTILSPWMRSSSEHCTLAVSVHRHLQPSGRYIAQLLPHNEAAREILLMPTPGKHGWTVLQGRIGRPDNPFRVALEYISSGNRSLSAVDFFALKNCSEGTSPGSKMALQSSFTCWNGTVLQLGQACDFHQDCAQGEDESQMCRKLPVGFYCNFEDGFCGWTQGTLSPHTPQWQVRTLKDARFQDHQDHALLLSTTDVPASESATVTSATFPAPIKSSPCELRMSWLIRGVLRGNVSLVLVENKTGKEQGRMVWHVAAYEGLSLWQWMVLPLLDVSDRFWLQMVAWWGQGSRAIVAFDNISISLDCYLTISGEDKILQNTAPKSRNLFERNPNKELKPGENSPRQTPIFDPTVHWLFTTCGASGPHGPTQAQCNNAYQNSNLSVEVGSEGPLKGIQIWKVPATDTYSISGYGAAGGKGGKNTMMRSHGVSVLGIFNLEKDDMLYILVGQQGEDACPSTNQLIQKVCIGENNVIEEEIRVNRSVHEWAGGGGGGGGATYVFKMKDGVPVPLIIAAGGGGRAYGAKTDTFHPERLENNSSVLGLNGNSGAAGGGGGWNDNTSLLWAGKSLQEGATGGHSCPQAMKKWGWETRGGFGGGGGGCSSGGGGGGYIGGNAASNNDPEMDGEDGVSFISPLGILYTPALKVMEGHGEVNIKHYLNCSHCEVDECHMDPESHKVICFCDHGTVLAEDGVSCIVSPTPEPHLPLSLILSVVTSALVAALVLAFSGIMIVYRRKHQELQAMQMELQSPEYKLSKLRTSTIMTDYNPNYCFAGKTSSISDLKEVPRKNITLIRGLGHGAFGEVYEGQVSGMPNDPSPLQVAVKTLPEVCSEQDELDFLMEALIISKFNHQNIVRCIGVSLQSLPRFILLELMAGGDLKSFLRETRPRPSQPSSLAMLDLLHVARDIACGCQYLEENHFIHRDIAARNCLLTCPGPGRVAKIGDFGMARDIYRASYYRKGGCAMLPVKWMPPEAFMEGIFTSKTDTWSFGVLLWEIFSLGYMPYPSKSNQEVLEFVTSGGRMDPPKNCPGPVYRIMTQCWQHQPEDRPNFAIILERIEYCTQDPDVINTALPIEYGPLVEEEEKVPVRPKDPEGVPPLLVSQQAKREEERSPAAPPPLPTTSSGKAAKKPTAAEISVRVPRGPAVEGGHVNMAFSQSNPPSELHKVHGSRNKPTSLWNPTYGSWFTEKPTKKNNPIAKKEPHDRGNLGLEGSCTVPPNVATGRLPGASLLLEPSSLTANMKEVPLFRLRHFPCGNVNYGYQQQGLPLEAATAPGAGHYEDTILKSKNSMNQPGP

As usually defined, the IC50 is the concentration at which inhibition is half-maximal. Consider `COc1cc(N2CCC(N(C)C)CC2)ccc1Nc1ncc(Cl)c(Nc2ccccc2C(=O)C(=O)NO)n1` [Example 3, 2-(2-(5-chloro-2-(4-(4-(dimethylamino)piperidin-1-yl)-2-methoxyphenylamino)pyrimidin-4-ylamino)phenyl)-N-hydroxy-2-oxoacetamide], for which the IC50 was 0.84 µM in assay [1], over 3 µM in assay [2] and 0.94 µM in assay [3].
Take `CNC(=O)C(=O)c1ccccc1Nc1nc(Nc2ccc(N3CCC(N(C)C)CC3)cc2OC)ncc1Cl` [Example 16, 2-(2-((5-chloro-2-((4-(4-(dimethylamino)piperidin-1-yl)-2-methoxyphenyl)amino)pyrimidin-4-yl)amino)phenyl)-N-methyl-2-oxoacetamide]: the values for the IC50 in assay [1], in assay [2] and in assay [3] were 1.13 µM, over 3 µM and 0.9 µM, respectively.
For `COc1cc(N2CCN(C(C)=O)CC2)ccc1Nc1ncc(Cl)c(Nc2ccccc2C(=O)C(=O)N2CCOCC2)n1` [Example 42, 1-(2-(2-(4-(4-acetylpiperazin-1-yl)-2-methoxyphenylamino)-5-chloropyrimidin-4-ylamino)phenyl)-2-morpholinoethane-1,2-dione], the IC50 in assay [1], in assay [2] and in assay [3] was over 3 µM each time.
For the compound `COc1cc(N2CCN(C)CC2)ccc1Nc1ncc(C(F)(F)F)c(Nc2ccccc2C(=O)C(=O)N2CCOCC2)n1` [Example 43, 1-(2-(2-(2-methoxy-4-(4-methylpiperazin-1-yl)phenylamino)-5-(trifluoromethyl)pyrimidin-4-ylamino)phenyl)-2-morpholinoethane-1,2-dione], the IC50 in assay [1], in assay [2] and in assay [3] was over 3 µM in each case.
Take `COc1cc(N2CCN(C)CC2)ccc1Nc1ncc(Cl)c(Nc2ccccc2C(=O)C(=O)N2CCOCC2)n1` [Example 44, 1-(2-(5-chloro-2-(2-methoxy-4-(4-methylpiperazin-1-yl)phenylamino)pyrimidin-4-ylamino)phenyl)-2-morpholinoethane-1,2-dione]: the IC50 in assay [1] is 1.23 µM; in assay [2] it was over 3 µM; in assay [3], 2.36 µM.
As to `COc1cc(N2CCC(N(C)C)CC2)ccc1Nc1ncc(C(F)(F)F)c(Nc2ccccc2C(=O)C(=O)N2CCOCC2)n1` [Example 45, 1-(2-(2-(4-(4-(dimethylamino)piperidin-1-yl)-2-methoxyphenylamino)-5-(trifluoromethyl)pyrimidin-4-ylamino)phenyl)-2-morpholinoethane-1,2-dione], the IC50 in assay [1], in assay [2] and in assay [3] was over 3 µM throughout.
With `COc1cc(N2CCN(C)CC2)ccc1Nc1ncc(Cl)c(Nc2ccccc2C(=O)C(=O)N(C)C)n1` [Example 46, 2-(2-(5-chloro-2-(2-methoxy-4-(4-methylpiperazin-1-yl)phenylamino)pyrimidin-4-ylamino)phenyl)-N,N-dimethyl-2-oxoacetamide], the values for the half-inhibitory concentration (IC50) in assay [1], in assay [2] and in assay [3] were 0.81 µM, over 3 µM and 1.63 µM, respectively.
`CNC(=O)C(=O)c1ccccc1Nc1nc(Nc2ccc(N3CCN(C)CC3)cc2OC)ncc1Cl` [Example 47, 2-(2-(5-chloro-2-(2-methoxy-4-(4-methylpiperazin-1-yl)phenylamino)pyrimidin-4-ylamino)phenyl)-N-methyl-2-oxoacetamide]: the IC50 in assay [1], in assay [2] and in assay [3] was over 3 µM throughout.
In the case of `C=CC(=O)Nc1cccc(Nc2ncc(Cl)c(Nc3ccccc3C(=O)C(=O)NC)n2)c1` [Example 57, N-(3-(5-chloro-4-(2-(2-(methylamino)-2-oxoacetyl)phenylamino)pyrimidin-2-ylamino)phenyl)acrylamide], the values for the IC50 in assay [1], in assay [2] and in assay [3] were 0.1 µM, over 3 µM and 0.27 µM, respectively.
As for `C=CC(=O)Nc1cccc(Nc2ncc(C(F)(F)F)c(Nc3ccccc3C(=O)C(N)=O)n2)c1` [Example 58, N-(3-(4-(2-(2-amino-2-oxoacetyl)phenylamino)-5-(trifluoromethyl)pyrimidin-2-ylamino)phenyl)acrylamide], the IC50 was 0.98 µM in assay [1], 0.37 µM in assay [2] and 0.53 µM in assay [3].
`C=CC(=O)N1CCC(NC(=O)C(=O)c2ccccc2Nc2nc(Nc3ccc(F)c(OC)c3)ncc2Cl)CC1` [Example 59, N-(1-acryloylpiperidin-4-yl)-2-(2-(5-chloro-2-(4-fluoro-3-methoxyphenylamino)pyrimidin-4-ylamino)phenyl)-2-oxoacetamide]: the IC50 in assay [1] was 0.19 µM; in assay [2], over 3 µM; in assay [3] it was over 3 µM.
As to `CNC(=O)C(=O)c1ccccc1Nc1nc(Nc2ccc(N3CCN(C)CC3)c(OC)c2)ncc1Cl` [Example 60, 2-(2-(5-chloro-2-(3-methoxy-4-(4-methylpiperazin-1-yl)phenylamino)pyrimidin-4-ylamino)phenyl)-N-methyl-2-oxoacetamide], the concentration for half-maximal inhibition (IC50) in assay [1] worked out at 0.15 µM; in assay [2], 2.08 µM; in assay [3] it was 0.87 µM.
Take `COc1cc(Nc2ncc(Cl)c(Nc3ccccc3C(=O)C(=O)N(C)C)n2)ccc1F` [Example 62, 2-(2-(5-chloro-2-(4-fluoro-3-methoxyphenylamino)pyrimidin-4-ylamino)phenyl)-N,N-dimethyl-2-oxoacetamide]: the figures for the IC50 in assay [1], in assay [2] and in assay [3] were over 3 µM, over 3 µM and 2.33 µM, respectively.
On to `CNC(=O)C(=O)c1ccccc1Nc1nc(Nc2ccc(F)c(OC)c2)ncc1Cl` [Example 63, 2-(2-(5-chloro-2-(4-fluoro-3-methoxyphenylamino)pyrimidin-4-ylamino)phenyl)-N-methyl-2-oxoacetamide], for which the IC50 in assay [1] is 0.64 µM; in assay [2], over 3 µM; in assay [3], over 3 µM.
With `C=CC(=O)Nc1cc(Nc2ncc(Cl)c(Nc3ccccc3C(=O)C(=O)NC)n2)c(F)cc1OC` [Example 68, N-(5-(5-chloro-4-(2-(2-(methylamino)-2-oxoacetyl)phenylamino)pyrimidin-2-ylamino)-4-fluoro-2-methoxyphenyl)acrylamide], the results for the IC50 in assay [1], in assay [2] and in assay [3] were 0.65 µM, over 3 µM and 1.2 µM, respectively.
For `C=CC(=O)Nc1cc(Nc2ncc(Cl)c(Nc3ccccc3C(=O)C(=O)N(C)C)n2)c(F)cc1OC` [Example 69, N-(5-(5-chloro-4-(2-(2-(dimethylamino)-2-oxoactyl)phenylamino)pyrimidin-2-ylamino)-4-fluoro-2-methoxyphenyl)acrylamide], in that order: 0.31 µM, over 3 µM and 1.2 µM.
`C/C=C/C(=O)Nc1ccc(OC)c(Nc2ncc(Cl)c(Nc3ccccc3C(=O)C(=O)N(C)C)n2)c1` [Example 70, (E)-N-(3-(5-chloro-4-(2-(2-(dimethylamino)-2-oxoacetyl)phenylamino)pyrimidin-2-ylamino)-4-methoxyphenyl)but-2-enamide]: the figures for the IC50 in assay [1], in assay [2] and in assay [3] were 0.31 µM, 1.37 µM and 1.05 µM, respectively.
For the compound `C=CC(=O)Nc1ccc(N2CCN(C)CC2)c(Nc2ncc(Cl)c(Nc3ccccc3C(=O)C(=O)N(C)C)n2)c1` [Example 135, N-(3-(5-chloro-4-(2-(2-(dimethylamino)-2-oxoacetyl)phenylamino)pyrimidin-2-ylamino)-4-(4-methylpiperazin-1-yl)phenyl)acrylamide], at EGFR (T790M) (h), the “Activity (control) % EGFR (T790M) (h)” value is reported as 96%. At EGFR (T790M, L858R) (h), the “Activity (control) % EGFR (T790M, L858R) (h)” value amounted to 95%. In addition, at EGFR (L858R) (h), the “Activity (control) % EGFR (L858R) (h)” value is 103%. Also, the “Activity (control) % ALK (h)” value on ALK (h) was determined as 80%. For the same compound, the “Activity (control) % EGFR (h)” value on EGFR (h) was determined as 106%.
The remaining activity is the activity still measured, relative to the control. A higher remaining activity goes with a small loss of activity. Take `C=CC(=O)Nc1ccc(OC2CCOC2)c(Nc2ncc(Cl)c(Nc3ccccc3C(=O)C(=O)N(C)C)n2)c1` (stereo not shown) [Example 136, N-(3-(5-chloro-4-(2-(2-(dimethylamino)-2-oxoactyl)phenylamino)pyrimidin-2-ylamino)-4-(tetrahydrofuran-3-yloxy)phenyl)acrylamide]: the “Activity (control) % EGFR (T790M) (h)” value on EGFR (T790M) (h) was determined as 92%. Further, on EGFR (T790M, L858R) (h), the “Activity (control) % EGFR (T790M, L858R) (h)” value amounted to 54%. At EGFR (L858R) (h), the “Activity (control) % EGFR (L858R) (h)” value came to 104%. Moreover, the remaining activity at 0.1 µM at ALK (h) (40 min) stood at 29%. For the same compound, at EGFR (h), the “Activity (control) % EGFR (h)” value was 99%.
In the case of `C=CC(=O)Nc1cccc(Oc2nc(Nc3ccc(N4CCN(C)CC4)cc3OC)ncc2Cl)c1` [WZ4002, reference compound], the concentration for half-maximal inhibition (IC50) in assay [2] was over 3 µM.
For “N-(5-(5-chloro-4-(2-(2-(dimethylamino)-2-oxoactyl)phenylamino)pyrimidin-2-ylamino)-2-(tetrahydrofuran-3-yloxy)phenyl)acrylamide [Example 124]”, at EGFR (T790M) (h), the “Activity (control) % EGFR (T790M) (h)” value is reported as 78%. Besides, at EGFR (T790M, L858R) (h), the “Activity (control) % EGFR (T790M, L858R) (h)” value is 20%. In addition, the “Activity (control) % EGFR (L858R) (h)” value on EGFR (L858R) (h) came to 100%. Besides, at ALK (h), the “Activity (control) % ALK (h)” value turned out to be 16%. Moreover, the “Activity (control) % EGFR (h)” value on EGFR (h) came to 109%.
